The source of these data is patent US20110207745A1 (priority 2009, published 2011).

Molecules are shown by their SMILES. Where “and” joins values, the source holds several entries; their conditions need not be identical. Equal values may be shown once. Where a name gives a salt, the structure may show the parent alone. Read-outs that look alike come from different tables or passages of the source.

In one series the test system is rat. Nature of the series: Punished responding procedure (modified Geller-Seifter conflict test). To be noted: 3.5 μmol/kg by mouth.
For series [1] the following is noted: for % Purity after 40° C./75% RH, 2 wks / % Purity after 40° C./75% RH, 4 wks / % Purity after 60° C./80% RH, 2 wks / % Purity after 60° C./80% RH, 4 wks / % Purity after 80° C., 2 wks / % Purity after 80° C., 4 wks / Initial Purity: HPLC area %; for % Purity after 60° C./80% RH, 2 wks / % Purity after 80° C., 2 wks: 2 weeks; for % Purity after 60° C./80% RH, 4 wks / % Purity after 80° C., 4 wks: 4 weeks; for Initial Purity: before storage. How it is done:
Stress Experiments. Solids are stressed under different temperature or relative humidity (RH) environments for a measured time period. Specific RH values are achieved by placing the sample inside sealed chambers containing saturated salt solutions, as known in the art. The salt solutions are selected and prepared following an ASTM standard procedure. Samples are analyzed by XRPD immediately after removal from the stress environment.
Analyses are carried out on an Agilent® model 1100 high performance liquid chromatograph using gradient elution on a reversed phase column utilizing ultraviolet (UV) detection. Approximately 25 mg of the sample is weighed accurately and dissolved in methanol/water/trifluoroacetic acid (35:65:0.05) to a volume of 50 mL. The sample solution is analysed using the conditions specified below:
The content of the drug and related substances are quantified by area (%).
Chemical Stability. The chemical stability of Form I of the mono-HCl salt of Compound A1 was assessed by stressing the material at various temperature/relative humidity/light conditions, then analyzing by HPLC.
Chemical Stability Data. The chemical stability of a sample of Form I of the sesquifumarate salt of Compound A1 was assessed by stressing the material at various temperature/relative humidity/light conditions, then analyzing by HPLC.

A short description of series [2]: Intrinsic dissolution rate in simulated biological media. In kind it is physicochemical. How it is done: Intrinsic dissolution rate is determined at 37° C. using a Distek Dissolution System model 5100A with a sample size of approximately 200 mg (0.5 cm^2 disc) and 500 mL dissolution medium. The paddle speed is set to 500 rpm and the paddle height to approximately 2.54 cm above the disc surface. The concentration of sample in solution is determined by HPLC.

Series [3] in a line: Solubility in simulated biological media. In kind it is physicochemical. To be noted: FaSSIF (fasted-state simulated intestinal fluid), initial pH 6.51, mean ± SD, n = 2. From the text:
Solubility and Dissolution Rate Data.
Solubility and Dissolution Rate Data. […]

[4] abbreviates: Ultraviolet light, 25° C./60% RH, 2x ICH (2 days), stored open.
Where [5] appears, read: Ultraviolet light, 25° C./60% RH, 3x ICH (3 days), stored open.
Where [6] appears, read: Ultraviolet light, 25° C./60% RH, ICH (1 day), stored open.
[7] abbreviates: White light, 25° C./60%, ICH (7 days), stored open.

Regarding `CN1C(=O)CN=C(c2ccccc2)c2cc(Cl)ccc21` [diazepam, reference compound], the “level of efficacy in modified Geller-Seifter conflict model” value in the series on rat is listed as “about 250%”.
With `CCN(CC)C(=O)c1ccc([C@H](c2cccc(N)c2)N2CCN(Cc3ccc(F)cc3)CC2)cc1` [Phosphate Salt of Compound A1, 4-{(R)-(3-aminophenyl)[4-(4-fluorobenzyl)piperazin-1-yl]methyl}-N,N-diethylbenzamide], in series [1] (40° C./75% RH), the “% Purity after 40° C./75% RH, 2 wks” value is 88.6% and the “% Purity after 40° C./75% RH, 4 wks” value amounted to 87.7%. In series [1], the “% Purity after 60° C./80% RH, 2 wks” value is 81.4%; the “% Purity after 60° C./80% RH, 4 wks” value was found to be 78.4%; the “Initial Purity” value stood at 91.2%. Also, in series [1] (80° C.), the “% Purity after 80° C., 2 wks” value came out at 86.6% and the “% Purity after 80° C., 4 wks” value is 83.4%.
For the compound `CCN(CC)C(=O)c1ccc([C@H](c2cccc(N)c2)N2CCN(Cc3ccc(F)cc3)CC2)cc1` [Form I of the mono-HCl salt of Compound A1] [4-{(R)-(3-aminophenyl)[4-(4-fluorobenzyl)piperazin-1-yl]methyl}-N,N-diethylbenzamide], the “% Purity (after challenge)” value in series [1] (25° C./60% RH, 7 days) is listed as 99.8%; in series [1] (40° C./75% RH, 7 days) it was 99.8%; in series [1] (80° C., 7 days), 99.8%; in series [1] (Reference, 0 days) it was 99.8%; in series [1] (setting [4]), 99.2%; in series [1] (setting [5]) it was 99.0%. The results for the “% Purity (after challenge)” value in series [1] (setting [6]) and in series [1] (setting [7]) were 99.6% and 98.5%, respectively. In addition, the “% Purity (reference material)” value in series [1] (25° C./60% RH, 7 days) was 103.2%; in series [1] (40° C./75% RH, 7 days), 102.1%; in series [1] (80° C., 7 days), 101.4%; in series [1] (Reference, 0 days), 100%; in series [1] (setting [4]), 95.0%; in series [1] (setting [5]), 94.7%. Moreover, the “% Purity (reference material)” value in series [1] (setting [6]) is reported as 98.0%; in series [1] (setting [7]) it was 95.6%. Besides, the “% Purity after 40° C./75% RH, 2 wks” value in series [1] (40° C./75% RH) was 97.3% and 98.8%. Moreover, the “% Purity after 40° C./75% RH, 4 wks” value in series [1] (40° C./75% RH) was 97.2% and 98.8%. Besides, the “% Purity after 60° C./80% RH, 2 wks” value in series [1] is 90.4% and 97.6%. In addition, the “% Purity after 60° C./80% RH, 4 wks” value in series [1] was 89.0% and 95.3%. Besides, in series [1] (80° C.), the “% Purity after 80° C., 2 wks” value was 94.1% and 96.9%. Further, the “% Purity after 80° C., 4 wks” value in series [1] (80° C.) was 92.3% and 95.4%. In addition, in series [1], the “Initial Purity” value is 97.0% and 98.7%. For the same compound, the “IDR (intrinsic dissolution rate)” value in series [2] (FaSSIF, initial pH 6.51, mean ± SD, n = 2) was 48.4 μg/min/cm^2; in series [2] (FaSSIF, initial pH 6.51, mean ± SD, n = 2, listed as Form I of the Compound A1 Mono-HCl Salt), 48.4 ± 7.12 μg/min/cm^2; in series [2] (FeSSIF, initial pH 5.03, mean ± SD, n = 2) it was 91.6 μg/min/cm^2; in series [2] (FeSSIF, initial pH 5.03, mean ± SD, n = 2, listed as Form I of the Compound A1 Mono-HCl Salt), 91.6 ± 5.48 μg/min/cm^2; in series [2] (SGF, initial pH 1.3) it was “too soluble to permit determination of its IDR”. The “Solubility, 3 hr” value in series [3] (3 hr) is 1720 µg/mL. Moreover, in series [3] (24 hr), the “Solubility, 24 hr” value is 830 µg/mL.
As to `CCN(CC)C(=O)c1ccc([C@H](c2cccc(N)c2)N2CCN(Cc3ccc(F)cc3)CC2)cc1` [Amorphous Tri-HCl Salt of Compound A1, 4-{(R)-(3-aminophenyl)[4-(4-fluorobenzyl)piperazin-1-yl]methyl}-N,N-diethylbenzamide], in series [1], the “% Purity after 60° C./80% RH, 2 wks” value stood at 93.5%; the “% Purity after 60° C./80% RH, 4 wks” value turned out to be 89.7%; the “Initial Purity” value is reported as 97.7%. Also, in series [1] (80° C.), the “% Purity after 80° C., 2 wks” value was 93.1% and the “% Purity after 80° C., 4 wks” value came to 91.1%.
On to `CCN(CC)C(=O)c1ccc([C@H](c2cccc(N)c2)N2CCN(Cc3ccc(F)cc3)CC2)cc1` [Sulfate Salt of Compound A1, 4-{(R)-(3-aminophenyl)[4-(4-fluorobenzyl)piperazin-1-yl]methyl}-N,N-diethylbenzamide], for which, in series [1] (40° C./75% RH), the “% Purity after 40° C./75% RH, 2 wks” value is 92.6% and 88.7%; the “% Purity after 40° C./75% RH, 4 wks” value was 91.2% and 87.3%. In series [1], the “% Purity after 60° C./80% RH, 2 wks” value was 74.1% and 80.5%; the “% Purity after 60° C./80% RH, 4 wks” value is 62.3% and 80.6%; the “Initial Purity” value is 93.3% and 94.7%. In series [1] (80° C.), the “% Purity after 80° C., 2 wks” value is 78.5% and 88.7%; the “% Purity after 80° C., 4 wks” value was 67.1% and 85.7%.
